Laboratory results published in article PMC8709206, “Study on Purification and Characterization of Polyphenol Oxidase from Acetes chinensis” (Molecules, 2021).

System: T1, Acetes chinensis PPO (polyphenol oxidase)
T1 construct: native enzyme purified from fresh shrimp (ammonium sulphate, DEAE, Phenyl-Sepharose HP); single SDS-PAGE band about 75 kDa
Assay: absorbance at […] nm, Lineweaver-Burk
Format: biochemical
Conditions: 0.05 mol/L phosphate buffer pH 7.2, 40 °C, 40 min; Figure 2 caption names pyrocatechol, text names L-Dopa

Km: 846 µM
Compound: N[C@@H](Cc1ccc(O)c(O)c1)C(=O)O [L-dopa]
